Assays:
KYSE-410 cells = experiment: Cancer cell viability assay with 3D cell colonies (CellTiter-Glo), KYSE-410; type: cell-based; conditions: Homo sapiens, KYSE-410, 168 h, 7 days
Description: (§1) Ovarian cancer cell line SK-OV-3 cells were cultured in McCoy's 5a media containing 10% FBS. Ovarian cancer cell line OVCAR-8 cells were cultured in RPMI media containing 10% FBS. Additional cancer cell lines were cultured in the following media: • Ovarian cancer SW756 cells—L-15 (100% air)+10% FBS • Esophageal cancer TE-1 cells—RPMI-1640+10% FBS • Esophageal cancer KYSE-410 cells—RPMI-1640+5˜10% FBS • Esophageal cancer KYSE-70 cells—RPMI-1640+10% h.i.FBS. • Pharyngeal cancer FaDu cells—MEM+0.01 mM NEAA+10% FBS
(§2) Cell colony formation was tested using a 3D methylcellulose-based CellTiter-Glo (CTG) viability assay (Cat. No: G7573, Promega). Briefly, cells were inoculated into 96-well plates (at 1,500 cells per well) into a solution of 0.65% methylcellulose in growth media and incubated overnight at 37° C. in 5% CO2. The next day, serially diluted test compound (islatravir) or positive control (cisplatin, Cat. No. 6J015A89, Qilu Pharma) were added at the indicated concentrations, and the cells were incubated for 7 days. On day seven, 100 μL of CTG reagent was added, and the plates were incubated at room temperature for 20 min. Luminescence was read on an Envision Multi Label Reader according to manufacturer's instructions. IC50 values were determined using the following calculation: […]

KYSE-70 cells = experiment: Cancer cell viability assay with 3D cell colonies (CellTiter-Glo), KYSE-70; type: cell-based; conditions: Homo sapiens, KYSE-70, 168 h, 7 days
Description: as §1, §2

[1] = tested on: interferon-stimulated gene (ISG) expression; experiment: In vivo decitabine challenge model; design: species or system C57BL/6 mice; conditions: islatravir p.o. 0.6, 2.0, 6.0 mg/kg once daily with decitabine i.p. 5 mg/kg, Day 0 to Day 4
Description: Twenty 9-11 week old C57BL/6 mice were acclimated to the lab for at least 5 days. Islatravir was prepared in a 0.5% methylcellulose solution for p.o. administration. Decitabine (Sigma) was dissolved in sterile PBS (pH 7.4) and dosed within 30 minutes of preparation of the solution. Doses of both islatravir and decitabine were administered once a day, every day from Day 0 to Day 4. On Day 0, mice were split into four groups of five mice and given their first dose of decitabine (i.p., 5 mg/kg) and compound 23. Dosing groups were: [table] Decitabine and islatravir were administered daily from Day 0 to Day 4. All mice were euthanized 1 hour after the last dose administration on Day 4. Spleens, liver, and terminal colon were collected, along with plasma from each animal. The fold changes in interferon-stimulated gene (ISG) expression was calculated by first normalizing to GAPDH gene using the Delta CT method. The CT (gene of interest)—CT (reference gene) was calculated to generate a delta CT for all samples. The fold change was then calculated by taking the […](Delta CT(control)−Delta CT (experimental). The control in this example was the PBS control animal group. The Taqman duplex assay (Thermo Fisher 4331182 and 4448489) was used according to the manufacturer's instructions to determine levels of GAPDH v. IFIT2.

[2] = target: T1, LINE1 reverse transcriptase (Homo sapiens, UniProt O00370); experiment: Transient artificial-intron Cis LINE1 reporter assay; type: cell-based; conditions: HEK 293 cells, FLuc/RLuc ratio, read-out: IC50 for inhibition of FLuc luminescence
T1 construct: expressed in transfected cells
T1 sequence (O00370 whole entry, looked up): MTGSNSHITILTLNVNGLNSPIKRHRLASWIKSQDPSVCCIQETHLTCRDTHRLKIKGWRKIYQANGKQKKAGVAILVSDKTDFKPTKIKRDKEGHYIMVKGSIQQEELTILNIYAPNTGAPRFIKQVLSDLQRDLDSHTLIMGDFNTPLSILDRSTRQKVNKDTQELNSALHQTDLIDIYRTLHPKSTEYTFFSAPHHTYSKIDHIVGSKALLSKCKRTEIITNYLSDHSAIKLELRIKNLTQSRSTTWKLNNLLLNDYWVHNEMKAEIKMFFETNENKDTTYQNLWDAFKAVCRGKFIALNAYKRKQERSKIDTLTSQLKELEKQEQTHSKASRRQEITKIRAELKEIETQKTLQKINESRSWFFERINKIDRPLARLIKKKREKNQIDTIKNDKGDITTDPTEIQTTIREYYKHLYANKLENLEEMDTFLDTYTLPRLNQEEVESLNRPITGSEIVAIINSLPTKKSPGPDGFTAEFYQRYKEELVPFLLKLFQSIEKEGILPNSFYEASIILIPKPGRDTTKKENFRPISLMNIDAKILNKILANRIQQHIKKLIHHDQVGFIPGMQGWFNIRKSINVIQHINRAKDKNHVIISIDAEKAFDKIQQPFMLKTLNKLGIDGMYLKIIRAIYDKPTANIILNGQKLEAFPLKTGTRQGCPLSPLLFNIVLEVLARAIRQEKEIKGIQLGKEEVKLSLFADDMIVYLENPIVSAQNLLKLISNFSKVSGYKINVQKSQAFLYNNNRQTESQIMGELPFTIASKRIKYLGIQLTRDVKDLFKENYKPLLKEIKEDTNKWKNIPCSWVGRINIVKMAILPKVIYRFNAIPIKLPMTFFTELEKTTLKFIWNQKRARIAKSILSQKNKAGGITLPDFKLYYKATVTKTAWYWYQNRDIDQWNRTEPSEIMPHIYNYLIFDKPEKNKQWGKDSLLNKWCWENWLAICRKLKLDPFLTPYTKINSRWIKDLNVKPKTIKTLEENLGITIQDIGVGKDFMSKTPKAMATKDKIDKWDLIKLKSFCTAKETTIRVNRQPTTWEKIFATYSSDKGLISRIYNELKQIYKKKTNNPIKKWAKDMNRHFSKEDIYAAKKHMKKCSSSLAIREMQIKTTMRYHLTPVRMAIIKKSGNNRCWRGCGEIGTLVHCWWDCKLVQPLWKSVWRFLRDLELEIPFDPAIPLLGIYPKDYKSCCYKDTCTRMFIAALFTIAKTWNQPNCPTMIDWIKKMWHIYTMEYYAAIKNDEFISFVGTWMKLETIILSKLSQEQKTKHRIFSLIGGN
Description: Intron-disrupted Firefly luciferase (FLuc) expression cassettes were generated as described by Xie, Y. et al. “Characterization of L1 retrotransposition with high-throughput dual-luciferase assays,” Nucleic Acid Res. (2011) Vol. 39, No. 3, e16. In addition, the plasmid contained an intact Renilla luciferase (RLuc) expression cassette on the vector backbone, in order to normalize transfection efficiency and measure potential cell toxicity.
HEK 293 cells were seeded in 96-well plates at 1,000 cells/well in 55 μL and grown for 24 hours. Cells were transfected with FuGeneHD (Promega) following the manufacturer's protocol. Each well received 0.133 ng plasmid, 0.4 μL FuGeneHD reagent, and 4.5 μL GlutaMAX-I-supplemented Opti-MEM I reduced-serum medium (Invitrogen). Cells were simultaneously treated with test compound serially diluted starting at 100 μM in a 3-fold dilution dose response.
Luminescence was measured using the Dual-Glo Luciferase Assay System (Promega) following the manufacturer's instructions. The ratio between FLuc and RLuc gene expression was used to report LINE1 activity.

OVCAR-8 cells = experiment: Cancer cell viability assay with 3D cell colonies (CellTiter-Glo), OVCAR-8; type: cell-based; conditions: Homo sapiens, OVCAR-8, 168 h; 3D tumorsphere growth, 7 days
Description: as §1, §2

SK-OV-3 cells = experiment: Cancer cell viability assay with 3D cell colonies (CellTiter-Glo), SK-OV-3; type: cell-based; conditions: Homo sapiens, SK-OV-3, 168 h; 3D tumorsphere growth, 7 days
Description: as §1, §2

- IC50 (KYSE-410 cells): > 30 µM
- IC50 (KYSE-70 cells): 10 to 30 µM
- IC50 [2]: 0.02 µM
- IC50 (OVCAR-8 cells): 1.95 µM
- IC50 (SK-OV-3 cells): 6.54 µM
SMILES: C#C[C@]1(CO)O[C@@H](n2cnc3c(N)nc(F)nc32)C[C@@H]1O [Islatravir, (2R,3S,5R)-5-(6-amino-2-fluoro-9H-purin-9-yl)-2-ethynyl-2-(hydroxymethyl)tetrahydrofuran-3-ol]
- change in ISG response [1]: showed the change in ISG response

From patent US20250186475A1, “METHODS OF TREATING MEDICAL CONDITIONS USING ISLATRAVIR OR A RELATED COMPOUND” (ROME Therapeutics, Inc., priority 2022, published 2025)
